≈ marks a conversion by molar mass, not a printed value.
What was measured:
[1] = Toxicity against BALB/c Mus musculus (mouse) peritoneal macrophages assessed as concentration required for cell lysis after 48 hr; type: cell-based, Peritoneal macrophage cell; conditions: read-out: Activity
[2] = test system: Mus musculus; test: Toxicity against BALB/c Mus musculus (mouse) assessed as SGPT level at 10 mg/kg, ip administered 2 times per week for 30 days (reference value: 28 +/- 5 IU/l); type: organism-based; set-up: dose 10 mg/kg, route intraperitoneal; conditions: in vivo, 720 h
[3] = test system: Mus musculus; test: Toxicity against BALB/c Mus musculus (mouse) assessed as blood urea level at 10 mg/kg, ip administered 2 times per week for 30 days (reference value: 29 +/- 6 mg/dl); type: organism-based; set-up: dose 10 mg/kg, route intraperitoneal; conditions: in vivo, 720 h
[4] = test system: Leishmania donovani; test: microbe, parasite or virus in culture; conditions: MHOH/IN/1983/AG83, 48 h
Description: Antileishmanial activity against amastigote form of Leishmania donovani MHOH/IN/1983/AG83 infected BALB/c mouse peritoneal macrophages after 48 hr by Geimsa staining method

[5] = test system: Leishmania donovani; test: Antileishmanial activity against promastigote form of Leishmania donovani MHOH/IN/1983/AG83 infected BALB/c mouse assessed as spleen weight at 10 mg/kg, ip administered 1 month post-infection 2 times per week for 30 days (reference value: 509 +/- 25 mg); type: functional; conditions: route intraperitoneal
[6] = test system: Leishmania donovani; test: Antileishmanial activity against promastigote form of Leishmania donovani MHOH/IN/1983/AG83 after 2 hr by MTT assay; type: functional, organism-based
[7] = test system: Leishmania donovani; test: Antileishmanial activity against promastigote form of Leishmania donovani MHOH/IN/1983/AG83 infected BALB/c mouse assessed as liver weight at 10 mg/kg, ip administered 1 month post-infection 2 times per week for 30 days (reference value: 1,746 +/- 56 mg); type: functional; conditions: route intraperitoneal
[8] = test system: Mus musculus; test: Toxicity against BALB/c Mus musculus (mouse) assessed as SGOT level at 10 mg/kg, ip administered 2 times per week for 30 days (reference value: 71 +/- 4 IU/l); type: organism-based; set-up: dose 10 mg/kg, route intraperitoneal; conditions: in vivo, 720 h
[9] = test system: Leishmania donovani; test: Antileishmanial activity against promastigote form of Leishmania donovani MHOH/IN/1983/AG83 infected in BALB/c mouse assessed as reduction in parasite burden in spleen at 10 mg/kg, i.p. administered 1 month post-infection 2 times per week for 30 days relative to control; type: functional; set-up: scale not given: the % may be the effect or the level left; conditions: route intraperitoneal
[10] = test system: Mus musculus; test: Toxicity against BALB/c Mus musculus (mouse) assessed as SGOT level at 4 mg/kg, ip administered 2 times per week for 30 days (reference value: 71 +/- 4 IU/l); type: organism-based; set-up: dose 4 mg/kg, route intraperitoneal; conditions: in vivo, 720 h
[11] = test system: Leishmania donovani; test: Antileishmanial activity against promastigote form of Leishmania donovani MHOH/IN/1983/AG83 infected BALB/c mouse assessed as spleen weight at 4 mg/kg, ip administered 1 month post-infection 2 times per week for 30 days (reference value: 509 +/- 25 mg); type: functional; conditions: route intraperitoneal
[12] = test system: Leishmania donovani; test: Antileishmanial activity against promastigote form of Leishmania donovani MHOH/IN/1983/AG83 infected BALB/c mouse assessed as reduction in parasite burden in liver at 4.5 mg/kg, ip administered 1 month post-infection 2 times per week for 30 days relative to control; type: functional; set-up: scale not given: the % may be the effect or the level left; conditions: route intraperitoneal
[13] = test system: Mus musculus; test: Toxicity against BALB/c Mus musculus (mouse) assessed as SGPT level at 4 mg/kg, ip administered 2 times per week for 30 days (reference value: 28 +/- 5 IU/l); type: organism-based; set-up: dose 4 mg/kg, route intraperitoneal; conditions: in vivo, 720 h
[14] = test system: Mus musculus; test: Toxicity against BALB/c Mus musculus (mouse) assessed as blood urea level at 4 mg/kg, ip administered 2 times per week for 30 days (reference value: 29 +/- 6 mg/dl); type: organism-based; set-up: dose 4 mg/kg, route intraperitoneal; conditions: in vivo, 720 h
[15] = test system: Leishmania donovani; test: Antileishmanial activity against amastigote form of Leishmania donovani MHOH/IN/1983/AG83 infected BALB/c mouse peritoneal macrophages at 10 ug/ml after 48 hr by Geimsa staining method relative to control; type: functional
[16] = test system: Leishmania donovani; test: Antileishmanial activity against promastigote form of Leishmania donovani MHOH/IN/1983/AG83 infected in BALB/c mouse assessed as reduction in parasite burden in spleen at 4.5 mg/kg, i.p. administered 1 month post-infection 2 times per week for 30 days relative to control; type: functional; set-up: scale not given: the % may be the effect or the level left; conditions: route intraperitoneal
[17] = test system: Leishmania donovani; test: Antileishmanial activity against promastigote form of Leishmania donovani MHOH/IN/1983/AG83 infected BALB/c mouse assessed as liver weight at 4 mg/kg, ip administered 1 month post-infection 2 times per week for 30 days (reference value: 1,746 +/- 56 mg); type: functional; conditions: route intraperitoneal
[18] = test system: Leishmania donovani; test: Antileishmanial activity against promastigote form of Leishmania donovani MHOH/IN/1983/AG83 infected in BALB/c mouse assessed as reduction in parasite burden in liver at 10 mg/kg, ip administered 1 month post-infection 2 times per week for 30 days relative to control; type: functional; set-up: scale not given: the % may be the effect or the level left; conditions: route intraperitoneal
[19] = test system: Leishmania donovani; test: Antileishmanial activity against promastigote form of Leishmania donovani MHOH/IN/1983/AG83 infected BALB/c mouse assessed as spleen weight at 250 mg/kg, ip administered 1 month post-infection 2 times per week for 30 days (reference value: 509 +/- 25 mg); type: functional, organism-based; set-up: dose 250 mg/kg
[20] = test system: Leishmania donovani; test: Antileishmanial activity against promastigote form of Leishmania donovani MHOH/IN/1983/AG83 infected BALB/c mouse assessed as reduction in parasite burden in spleen at 250 mg/kg, ip administered 1 month post-infection 2 times per week for 30 days relative to control; type: functional, organism-based; set-up: dose 250 mg/kg; scale not given: the % may be the effect or the level left
[21] = test system: Leishmania donovani; test: Antileishmanial activity against promastigote form of Leishmania donovani MHOH/IN/1983/AG83 infected BALB/c mouse assessed as liver weight at 250 mg/kg, ip administered 1 month post-infection 2 times per week for 30 days (reference value: 1,746 +/- 56 mg); type: functional, organism-based; set-up: dose 250 mg/kg
[22] = test system: Leishmania donovani; test: Antileishmanial activity against promastigote form of Leishmania donovani MHOH/IN/1983/AG83 infected BALB/c mouse assessed as reduction in parasite burden in liver at 250 mg/kg, ip administered 1 month post-infection 2 times per week for 30 days relative to control; type: functional, organism-based; set-up: dose 250 mg/kg; scale not given: the % may be the effect or the level left
[23] = Leishmania donovani, MHOH/IN/1983/AG83, 2 h, read-out: IC50

Compound	IC50 [4] [µg/mL]	MCC at 48 h [1] [µg/mL]	Activity [2] [IU/L]	Activity [3] [mg/dL]	Activity [5] [mg]	IC50 [6, 23] [µg/mL]	Activity [8] [IU/L]	also measured
O=C1CN(c2cc(Cl)ccc2Cl)C(=O)CN1c1cc(Cl)ccc1Cl	6.6 (≈ 16.3 µM)	> 60				2.6 (≈ 6.43 µM)		
COc1ccc(Cl)cc1N1CC(=O)N(c2cc(Cl)ccc2OC)CC1=O		> 100						IC50 [6]: Not Active
O=C1CN(c2ccc(Cl)cc2Cl)C(=O)CN1c1ccc(Cl)cc1Cl	6.4 (≈ 15.8 µM)	> 35				2.9 (≈ 7.18 µM)		
O=C1CN(c2c(Cl)cc(Cl)cc2Cl)C(=O)CN1c1c(Cl)cc(Cl)cc1Cl	> 10	> 70				9.4 (≈ 19.9 µM)		
SODIUM ANTIMONY GLUCONATE								Activity [19]: 303 mg; Activity [20]: 60.2%; Activity [21]: 1320 mg; Activity [22]: 57.7%
N=C(N)c1ccc(OCCCCCOc2ccc(C(=N)N)cc2)cc1 [PENTAMIDINE]	2.8 (≈ 8.22 µM)	> 90				2.1 (≈ 6.17 µM)		
C[C@@H]1[C@H](O)[C@@H](C)/C=C/C=C/C=C/C=C/C=C/C=C/C=C/[C@H](O[C@@H]2O[C@H](C)[C@@H](O)[C@H](N)[C@@H]2O)C[C@@H]2O[C@](O)(C[C@@H](O)C[C@@H](O)[C@H](O)CC[C@@H](O)C[C@@H](O)CC(=O)O[C@H]1C)C[C@H](O)[C@H]2C(=O)O [AMPHOTERICIN B]	0.1 (≈ 0.108 µM)	> 4						

Now from value to compound, other results behind:

IC50 [4] [µg/mL]	Compound	MCC at 48 h [1] [µg/mL]	Activity [2] [IU/L]	Activity [3] [mg/dL]	Activity [5] [mg]	IC50 [6, 23] [µg/mL]	Activity [8] [IU/L]	also measured
1.6 (≈ 6.01 µM)	O=C1CN(c2ccccc2)C(=O)CN1c1ccccc1	> 30	34	32	166	1.4 (≈ 5.26 µM)	74	Activity [7]: 999 mg
0.53 (≈ 1.58 µM)	O=C1CN(c2cccc(Cl)c2)C(=O)CN1c1cccc(Cl)c1	> 25	28	29	87	1 (≈ 2.98 µM)	67	Activity [9]: 91.35%; Activity [10]: 69 IU/L; Activity [11]: 155 mg; Activity [12]: 69.73%; Activity [13]: 29 IU/L; Activity [14]: 28 mg/dL; Activity [15]: 92.19%; Activity [16]: 67.97%; Activity [17]: 1134 mg; Activity [18]: 94.75%
1.8 (≈ 6.12 µM)	Cc1ccc(N2CC(=O)N(c3ccc(C)cc3)CC2=O)cc1	> 40	33	34	184	1.1 (≈ 3.74 µM)	75	Activity [7]: 1127 mg
0.61 (≈ 1.82 µM)	O=C1CN(c2ccccc2Cl)C(=O)CN1c1ccccc1Cl	> 25	28	30	106	1.02 (≈ 3.04 µM)	72	Activity [9]: 71.81%; Activity [15]: 92%; Activity [18]: 80.37%; Activity [7]: 976 mg
1.1 (≈ 3.95 µM)	O=C1CN(C2CCCCC2)C(=O)CN1C1CCCCC1	> 50	30	31	139	0.7 (≈ 2.51 µM)	73	Activity [9]: 80.95%; Activity [15]: 84.66%; Activity [18]: 81.74%; Activity [7]: 1076 mg
2 (≈ 5.71 µM)	CC(=O)c1cccc(N2CC(=O)N(c3cccc(C(C)=O)c3)CC2=O)c1	> 50				3.4 (≈ 9.7 µM)		
4.3 (≈ 10.6 µM)	O=C1CN(c2cccc(Cl)c2Cl)C(=O)CN1c1cccc(Cl)c1Cl	> 50				2.2 (≈ 5.44 µM)		
2.2 (≈ 6.74 µM)	COc1ccc(N2CC(=O)N(c3ccc(OC)cc3)CC2=O)cc1	> 60				21.8 (≈ 66.8 µM)		

Source: ChEMBL document CHEMBL3046404, “The cytotoxic effects of diketopiperaizes against Leishmania donovani promastigotes and amastigotes” (Med Chem Res, 2013)
